Measured values taken from patent US6133292A, “Diaryl-5-alkyl-5-methyl-2-(5H)-furanones as selective cyclooxygenase-2-inhibitors” (Merck Frosst Canada & Co., priority 1998, dated 2000).

Experiment: Pharmacokinetics in rats (half-life)
Assay type: in vivo, rat (male Sprague Dawley)
Conditions: rat, blood, read-out: T 1/2 in Rats (converted)
Description: Per Os Pharmacokinetics in Rats--Procedure:
The animals are housed, fed and cared for according to the Guidelines of the Canadian Council on Animal Care. Male Sprague Dawley rats (325-375 g) are fasted overnight prior to each PO blood level study. The rats are placed in the restrainer one at a time and the box firmly secured. The zero blood sample is obtained by nicking a small (1 mm or less) piece off the tip of the tail. The tail is then stroked with a firm but gentle motion from the top to the bottom to milk out the blood. Approximately 1 mL of blood is collected into a heparirnized vacutainer tube.
Compounds are prepared as required, in a standard dosing volume of 10 mL/kg, and administered orally by passing a 16 gauge, 3" gavaging needle into the stomach. Subsequent bleeds are taken in the same manner as the zero bleed except that there is no need to nick the tail again. The tail is cleaned with a piece of gauze and milked/stroked as described above into the appropriately labelled tubes.
Immediately after sampling, blood is centrifuged, separated, put into clearly marked vials and stored in a freezer until analysed. Typical time points for determination of rat blood levels after PO dosing are 0, 15 min, 30 min, 1 h, 2 h, 4 h, and 6 h.
After the 4 hr time point bleed, food is provided to the rats ad libitum. Water is provided at all times during the study.
The following vehicles may be used in PO rat blood level determinations:
Compounds for PO blood levels can be in suspension form. For better dissolution, the solution can be placed in a sonicator for approximately 5 minutes.
For analysis, aliquots are diluted with an equal volume of acetonitrile and centrifuged to remove protein precipitate. The supernatant is injected directly onto a C-18 HPLC column with UV detection. Quantitation is done relative to a clean blood sample spiked with a known quantity of drug.
Intravenous Pharmacokinetics in Rats--Procedure
The animals are housed, fed and cared for according to the Guidelines of the Canadian Council on Animal Care. Male Sprague Dawley (325-375 g) rats are placed in plastic shoe box cages with a suspended floor, cage top, water bottle and food. The compound is prepared as required, in a standard dosing volume of 1 mL/kg.
Rats are bled for the zero blood sample and dosed under CO2 sedation. The rats, one at a time, are placed in a primed CO2 chamber and taken out as soon as they have lost their righting reflex. The rat is then placed on a restraining board, a nose cone with CO2 delivery is placed over the muzzle and the rat restrained to the board with elastics. With the use of forceps and scissors, the jugular vein is exposed and the zero sample taken, followed by a measured dose of compound which is injected into the jugular vein. Light digital pressure is applied to the injection site, and the nose cone is removed. The time is noted. This constitutes the zero time point.
The 5 min bleed is taken by nicking a piece (1-2 mm) off the tip of the tail. The tail is then stroked with a firm but gentle motion from the top of the tail to the bottom to milk the blood out of the tail. Approximately 1 mL of blood is collected into a heparinized collection vial. Subsequent bleeds are taken in the same fashion, except that there is no need to nick the tail again. The tail is cleaned with a piece of gauze and bled, as described above, into the appropriate labelled tubes. Typical time points for determination of rat blood levels after I.V. dosing are either a) 0, 5 min, 15 min, 30 min, 1 h, 2 h, 6 h, or b) 0, 5 min, 30 min, 1 h, 2 h, 4 h, 6 h.
The following vehicles may be used in IV rat blood level determinations:
DMSO (dimethylsulfoxide): Restricted to a dose volume of 0.1 mL per animal
PEG 200: Not more than 60% mixed with 40% sterile water --1 mL/kg
With Dextrose, either sodium bicarbonate or sodium carbonate can be added if the solution is cloudy. […]

Compound `CC1(C)OC(=O)C(c2ccc(F)cc2)=C1c1ccc(S(C)(=O)=O)cc1` [Compound T3-1, 3-(4-fluorophenyl)-5,5-dimethyl-4-[4-(methylsulfonyl)phenyl]-2,5-dihydro-2-furanone, reference compound] has a half-life greater than 24 h.
For `CCC1(C)OC(=O)C(c2ccc(F)cc2)=C1c1ccc(S(C)(=O)=O)cc1` (centres unmarked) [c, 5-ethyl-3-(4-fluorophenyl)-5-methyl-4-[4-(methylsulfonyl)phenyl]-2,5-dihydro-2-furanone], the half-life was 3 h.
Work on `CC[C@@]1(C)OC(=O)C(c2ccc(F)c(F)c2)=C1c1ccc(S(C)(=O)=O)cc1` [h, (5R)-3-(3,4-difluorophenyl)-5-ethyl-5-methyl-4-[4-(methylsulfonyl)phenyl] -2,5-dihydro-2-furanone] yielded a half-life of 3.6 h.
Work on `CC[C@]1(C)OC(=O)C(c2ccc(F)c(F)c2)=C1c1ccc(S(C)(=O)=O)cc1` [i, (5S)-3-(3,4-difluorophenyl)-5-ethyl-5-methyl-4-[4-(methylsulfonyl)phenyl] -2,5-dihydro-2-furanone] yielded a half-life of 4.8 h.
Work on `CCCC1(C)OC(=O)C(c2ccc(F)cc2)=C1c1ccc(S(C)(=O)=O)cc1` (centres unmarked) [n, 3-(4-fluorophenyl)-5-methyl-4-[4-(methylsulfonyl)phenyl]-5-propyl-2,5-dihydro-2-furanone] yielded a half-life of roughly 1 h.
